Legend:
[1] = test system: focal cerebral ischemia reperfusion model rats; experiment: Focal cerebral ischemia reperfusion model in rats, intraperitoneal dosing (Example 16); assay type: in vivo, Wistar rats; details: for Cerebral infarction size (%): 2 h ischemia, 24 h reperfusion, i.p. twice (30 min before ischemia, 12 h after reperfusion), combination 0.5+0.25 mg/kg, control 35.7 ± 7.52; for Cerebral infarction size (%) / neurological deficit score (points) / Cerebral water content (%): Edaravone 1.0 mg/kg, natural borneol 0.5 mg/kg, mean ± SD; for neurological deficit score (points): Longa 5-point scoring 24 h after reperfusion, control 3.1 ± 1.05; for neurological deficit score (points) / Cerebral water content (%): combination 0.5+0.25 mg/kg i.p. twice; for Cerebral water content (%): dry and wet method after ischemia/reperfusion, sham 78.41, control 82.19; for cerebral edema / cerebral water content compared with control group: single drugs P<0.05, combination P<0.01; for effect on symptoms of neurological deficits: versus control group, doses as Table 1
Procedure: 1.1 Animals: healthy male Wistar rats weighing 280-320 g.
1.2 Drugs and Reagents: Edaravone for injection (2 mg/mL) of Example 1, natural borneol injection (2 mg/mL) of Example 3 and Edaravone+natural borneol injection of Example 5.
Main steps are described as follows. Rats were anesthetized with 10% chloral hydrate (350 mg/kg, i.p.). Right external carotid was separated, ligated and severed. A nylon thread with rounded tip was inserted slowly for about 18 mm in depth into the residual end of right external carotid and through common carotid and internal carotid to induce ischemia by blocking the origin of middle cerebral artery. After ischemia for 2 h, the nylon thread was removed for reperfusion for 24 h. Animals in the sham group were treated identically to those in the model group, except that a nylon thread was just used to separate the artery. Manifestation of Homer's symptom and opposite lateral body dyskinesia after animal revival means a successful modelling.
Experimental animals were randomly divided into five groups, including sham group, control group and drug groups. Animals in drug groups were intraperitoneally injected twice, 30 min before ischemia and 12 h after reperfusion. Animals in sham group and control group were each injected with equal volume of normal saline instead.
Neurological deficit scoring: Behavioral evaluation was performed 24 h after reperfusion according to Longa 5-point scoring system.
Determination of cerebral infarction size: Animals were decapitated to get the brain after the last neurological deficit scoring. Rhinencephalon, lower brain stem and cerebella were removed, and the remaining brains were immediately weighted to obtain wet weights. The brains were sectioned coronally into five slices with substantially identical thickness on ice, then incubated in 2,3,5-triphenyl tetrazolium chloride for 30 min at 37° C. Normal brain tissues appeared rose, while infarction areas appeared white. Next, brain slices were fixed in 10% formaldehyde, and white tissues were carefully removed and weighed. Infarction size was determined by the percentage of infracted tissue weight in the total cerebral weight.
Determination of cerebral water content: Cerebral water contents were determined by dry and wet method. Animals were sacrificed to get the whole brain. Rhinencephalon, lower brain stem and cerebella were removed and the wet weight of the remaining brains was determined immediately. Dry weight was obtained after baking in a oven for about 18 h at 120° C. Cerebral water content was calculated according to the following equation: Cerebral water content (%)=(cerebral wet weight−cerebral dry weight)/cerebral wetweight×100.

[2] = test system: MCAO cerebral ischemia/reperfusion model rats; experiment: Middle cerebral artery occlusion (MCAO) cerebral ischemia/reperfusion model, internal carotid thread method (Example 17); assay type: in vivo, Wistar rats; details: Edaravone+natural borneol total 0.75 mg/kg, Nimodipine 0.4 mg/kg single dosage, mean ± SD, n=8
Procedure: 1.2 Drugs and Reagents: Edaravone+natural borneol for injection of Examples 5, 8 and 9.
Middle cerebral artery occlusion (MCAO), a cerebral ischemia/reperfusion model, was prepared using the internal carotid thread method. Animals were anesthetized with 10% chloral hydrate (3.5 mL/kg), and then fixed on the operation table in prone position. The skin was disinfected and the neck was incised from the midline. Right common carotid, external carotid and internal carotid were separated, and vagus nerve was separated carefully. The external carotid was ligated and severed. Moved forward along the internal carotid, and then pterygopalatine artery was ligated. The proximal part of common carotid was clamped and a cut was made at the distal end of the external carotid ligature. A nylon thread with the outer diameter of 0.285 mm was inserted into the cut, through the branch of common carotid and then into internal carotid slowly until a slight resistance was met (about 20 mm distance from the divergence point). […] Cerebral blood flow was monitored by using laser Doppler cerebral flowmetry. After ischemia in the right brain for 2.0 h, the nylon thread was withdrawn slowly and then blood supply was recovered for reperfusion. The scalp was sutured and disinfected. In the sham group, only the blood vessels were separated without the insertion of a nylon thread. During the operation, rat heating plate and desk lamp with 60 W were used to keep the body temperature of rats at 37.0±0.5° C. […]
Neurological deficit scoring: neurological deficit symptoms were evaluated according to modified Bederson scoring system of 5-point. Neurological deficit symptoms after cerebral trauma in rats were evaluated by using single-blinded method. That is, the experiment designer labeled the animals in groups, while the experiment performer who scored neurological deficit symptoms were blinded for animals grouping. […]

[3] = test system: New Zealand rabbits; experiment: Repeated intravenous toxicity in rabbits: hematuria, gross necropsy, histopathology (Example 19); assay type: in vivo; details: for incidence of hematuria: marginal ear vein once daily, 6 rabbits
Procedure: 1.1 Animals: 36 New Zealand rabbits, general grade, with body weight of 2.0-3.0 kg, 18 ♂ and 18 ♀(female and male) respectively.
1.2 Drugs and Reagents: drugs obtained from Examples 12, 13, 14 and 15; 1,2-propylene glycol, 0.9% sodium chloride injection.
Edaravone 80 mg/kg (propylene glycol content: 40%)
Edaravone 20 mg/kg (propylene glycol content: 10%)
Combined Edaravone 120 mg/kg (propylene glycol content: 50%)
Combined Edaravone 30 mg/kg (propylene glycol content: 10%)
Combined Edaravone in this Example refers to Edaravone+natural borneol (weight ratio=2:1).
In the above dosage groups, the dosage per day per rabbit was calculated according to actual weight of each rabbit. The test drugs were administrated in equal volume according to body weight of respective rabbits.
36 rabbits were numbered and randomly divided into six groups according to the body weight, including 4 dosage groups, “Edaravone+natural borneol (weight ratio=2:1)” 120 mg/kg, 30 mg/kg; “Edaravone” 80 mg/kg, 20 mg/kg; as well as vehicle group (40% propylene glycol solution) and solvent group (0.9% sodium chloride injection). There were 6 rabbits in each group, including 3 males and 3 females each. Rabbits were habituated and observed for 3 days before the test. During the test, rabbits were dosed once at the same time in each morning via marginal ear vein injection. Rabbits in high dosage groups were continuously dosed for 13 days, while in low dosage groups, solvent group and vehicle group for 20 days. The dosage were regulated in accordance with body weight variation. Animal responses, stimulations at injection sites and histopathological examination in kidneys and injection site were used to comprehensively evaluate the toxicity of either combined Edaravone or Edaravone on the rabbits.

[4] = test system: cerebral ischemia/reperfusion model rats; experiment: Focal cerebral ischemia/reperfusion model, Edaravone versus combinations 2:1, 4:1, 9:1 (Example 18); assay type: in vivo, Wistar rats
Procedure: 1.1 Animals: Healthy male Wistar rats weighing 280-320 g.
1.2 Drugs and Reagents: Edaravone for injection (2 mg/mL) of Example 1, and Edaravone+natural borneol for injection of Examples 5, 7 and 11.
Experimental methods and evaluation methods are the same as Example 13.

[5] = Edaravone 80 and 20 mg/kg groups, combined Edaravone 120 and 30 mg/kg groups

Row | SMILES | Cerebral infarction size (%) [1] [%] | neurological deficit score (points) [1] [points] | Cerebral water content (%) [1] [%] | cerebral edema / cerebral water content compared with control group [1] | effect on symptoms of neurological deficits [1] | neurological deficit symptoms score ([2]; modified Bederson 5-point score, four administrations (0, 2, 4, 24 h after ischemia), model 2.6 ± 0.52) | brain lesion ([2]; percentage of brain lesion by formazan absorbance at 485 nm, model 33.2 ± 14.8) | cerebral infarction area ([2]; percentage of infarction area by TTC image analysis, model 27.4 ± 13.4) | gross necropsy: rabbits with a swollen kidney ([3]; 20 mg/kg i.v. daily, 20 days) | incidence of hematuria ([3]; 20 mg/kg, 20 days, propylene glycol 10%) [%] | gross necropsy: liver finding ([3]; 80 mg/kg i.v. daily, 13 days) | gross necropsy: rabbits with khaki and swollen kidney having uneven surface ([3]; 80 mg/kg i.v. daily, 13 days) | incidence of hematuria ([3]; 80 mg/kg, 13 days, propylene glycol 40%) [%] | histopathological examination: injection sites [3, 5] | histopathological examination: kidney [3, 5] | neurological deficit symptoms score ([4]; Edaravone 3 mg/kg, combination dose not given, mean ± SD, n=8, model 2.7 ± 0.5) | cerebral infarction area ([4]; Edaravone 3 mg/kg, combination dose not given, mean ± SD, n=8, model 25.4 ± 14.8) | brain lesion ([4]; Edaravone 3 mg/kg, combination dose not given, mean ± SD, n=8, model 32.2 ± 15.1) | cerebral infarction area compared with model group ([4]; F4,35=4.62, P=0.03, 4:1 and 9:1 P=0.081) | severity of brain lesion compared with model group ([4]; F4,35=5.78, P=0.04, 4:1 and 9:1 P=0.159)
1 | CC1(C)C2CCC1(C)C(O)C2 (stereo not shown) [Natural borneol, dextro-camphol] | 19.8 ± 6.37 | 2.0 ± 0.98 | 81.25 ± 0.97 | significant effect | Neither Edaravone alone nor natural borneol alone had significant effect |  |  |  |  |  |  |  |  |  |  |  |  |  |  | 
2 | COCCOC(=O)C1=C(C)NC(C)=C(C(=O)OC(C)C)C1c1cccc([N+](=O)[O-])c1 (stereo not shown) [Nimodipine] |  |  |  |  |  | 1.1 ± 0.58 | 11.6 ± 5.0 | 8.8 ± 4.0 |  |  |  |  |  |  |  |  |  |  |  | 
3 | CC1=NN(c2ccccc2)C(=O)C1 [Edaravone, 3-methyl-1-phenyl-2-pyrazolin-5-one] | 18.0 ± 5.29 | 2.5 ± 1.02 | 81.65 ± 1.24 | significant effect | Neither Edaravone alone nor natural borneol alone had significant effect |  |  |  | 3 of 6 | 100 | one of the rabbits suffered hepatonecrosis and had a khaki and hard liver | 3 of 6 | 100 | stimulatory changes such as vascular occlusion to varied extents | progressive renal lesion such as renal tubular lesion, inflammatory infiltration of mesenchyme, and glomerular lesion | 0.94 ± 0.46 | 9.7 ± 4.6 | 11.6 ± 9.7 | significantly reduced | significantly reduced

Source: patent US8658684B2, “Pharmaceutical composition and its use in the preparation of a medicament for the treatment of cerebrovascular diseases” (Jiangsu Simcere Pharmaceutical R & D Co., Ltd., priority 2008, dated 2014)
